Source: patent US10717764B2, “Therapeutically active compounds and their methods of use” (Agios Pharmaceuticals, Inc., priority 2013, dated 2020)

tested on: U87MG cells (2-HG production); assay: Cellular assay, inhibition of 2-HG production in U87MG cells; format: cell-based; settings: Homo sapiens, U-87 MG, 48 h
Protocol: (§1) Cells (HT1080 or U87MG) are grown in T125 flasks in DMEM containing 10% FBS, 1× penicillin/streptomycin and 500 ug/mL G418 (present in U87MG cells only). They are harvested by trypsin and seeded into 96 well white bottom plates at a density of 5000 cell/well in 100 ul/well in DMEM with 10% FBS. […] Cells are incubated overnight at 37° C. in 5% CO2. The next day test compounds are made up at 2× the final concentration and 100 ul are added to each cell well. The final concentration of DMSO is 0.2% and the DMSO control wells are plated in row G. The plates are then placed in the incubator for 48 hours. […] The cell plate is placed back in the incubator for another 24 hours. At 72 hours post compound addition, 10 mL/plate of Promega Cell Titer Glo reagent is thawed and mixed. The cell plate is removed from the incubator and allowed to equilibrate to room temperature. Then 100 ul of Promega Cell Titer Glo reagent is added to each well of media. The cell plate is then placed on an orbital shaker for 10 minutes and then allowed to sit at room temperature for 20 minutes. The plate is then read for luminescence with an integration time of 500 ms.

For `O=C(NC1CC(F)(F)C1)[C@H](c1ccccc1Cl)N(C(=O)[C@@H]1CCC(=O)N1c1ccccn1)c1cccc(F)c1` [Compound 5], which IC50 is on record?
Its IC50 is 0.1 to 0.5 µM.

With `CS(=O)(=O)c1cc(F)cc(N(C(=O)[C@@H]2CCC(=O)N2c2cc(C#N)ccn2)C(C(=O)NC2CC(F)(F)C2)c2ccccc2Cl)c1` (stereo partly drawn) [Compound 110, (2S)—N-(1-(2-Chlorophenyl)-2-((3,3-difluorocyclobutyl)amino)-2-oxoethyl)-1-(4-cyanopyridin-2-yl)-N-(3-fluoro-5-(methylsulfonyl)phenyl)-5-oxopyrrolidine-2-carboxamide] as the molecule, how does the IC50 read?
The IC50 was < 0.1 µM.

Which IC50 does the source give for `C[C@]1(O)C[C@@H](C(=O)N(c2cccc(F)c2)[C@H](C(=O)NC2CC(F)(F)C2)c2ccccc2Cl)N(c2cc(C#N)ccn2)C1=O` (stereo in doubt) [Compound 183, (2S)—N—((R)-1-(2-chlorophenyl)-2-(3,3-difluorocyclobutylamino)-2-oxoethyl)-1-(4-cyanopyridin-2-yl)-N-(3-fluorophenyl)-4-hydroxy-4-methyl-5-oxopyrrolidine-2-carboxamide] here?
Its IC50 is < 0.1 µM.

How did the IC50 turn out when `O=C(N[C@H]1CCC(F)(F)C1)[C@H](c1ccccc1Cl)N(C(=O)[C@@H]1CCC(=O)N1c1ncccn1)c1cccc(F)c1` (stereo in doubt) [Compound 73] was run?
The IC50 was < 0.1 µM.

How did the IC50 turn out when `N#Cc1ccnc(N2C(=O)CC[C@H]2C(=O)N(c2cc(F)cc(F)c2)[C@H](C(=O)NC2CC(F)(F)C2)c2ccccc2F)c1` [Compound 208, (S)-1-(4-Cyanopyridin-2-yl)-N—((S)-2-(3,3-difluorocyclobutylamino)-1-(2-fluorophenyl)-2-oxoethyl)-N-(3,5-difluorophenyl)-5-oxopyrrolidine-2-carboxamide] was run?
The IC50 was < 0.1 µM.

same assay, conditions: inhibition of 2-HG production, U87MG cells, 48 hours

“(S)—N—((S)-1-(2-Chlorophenyl)-2-((3,3-difluorocyclobutyl)amino)-2-oxoethyl)-1-(4-cyanopyridin-2-yl)-N-(3,5-difluorophenyl)-5-oxopyrrolidine-2-carboxamide [Compound 71]” was tested. Which IC50 did it give?
Its IC50 is < 0.1 µM.

For “(S)—N—((S)-1-(2-Chlorophenyl)-2-(3,3-difluorocyclobutylamino)-2-oxoethyl)-N-(3-cyano-5-fluorophenyl)-3-(3-cyanophenyl)-2-oxooxazolidine-4-carboxamide [Compound 134]”, which IC50 is on record?
Its IC50 is < 0.1 µM.

With “(S)—N—((S)-1-(2-Chlorophenyl)-2-((3,3-difluorocyclobutyl)amino)-2-oxoethyl)-1-(4-cyanopyridin-2-yl)-N-(1H-indazol-6-yl)-5-oxopyrrolidine-2-carboxamide [Compound 205]” as the molecule, how does the IC50 read?
The IC50 was < 0.1 µM.

For “(S)—N—((S)-1-(2-Chlorophenyl)-2-((4,4-difluorocyclohexyl)amino)-2-oxoethyl)-1-(4-cyanopyridin-2-yl)-N-(1H-indazol-6-yl)-5-oxopyrrolidine-2-carboxamide [Compound 136]”, which IC50 is on record?
Its IC50 is < 0.1 µM.

For “(S)-tert-butyl 3-(((S)-1-(2-chlorophenyl)-2-((3,3-difluorocyclobutyl) amino)-2-oxoethyl)(3,5-difluorophenyl)carbamoyl)-5-oxopiperazine-1-carboxylate [Compound 97]”, which IC50 is on record?
Its IC50 is < 0.1 µM.

With `N#Cc1cccc(N2C(=O)OC[C@H]2C(=O)N(c2cccc3cn[nH]c23)[C@H](C(=O)NC2CCC(F)(F)CC2)c2ccccc2Cl)c1` [Compound 142, (S)—N—((S)-1-(2-Chlorophenyl)-2-(4,4-difluorocyclohexylamino)-2-oxoethyl)-3-(3-cyanophenyl)-N-(1H-indazol-7-yl)-2-oxooxazolidine-4-carboxamide] as the molecule, how does the IC50 read?
The IC50 was < 0.1 µM.

For “(S)—N—((S)-1-(2-Chlorophenyl)-2-(3,3-difluorocyclobutylamino)-2-oxoethyl)-1-(3-cyano-phenyl)-N-(1H-indazol-7-yl)-5-oxopyrrolidine-2-carboxamide [Compound 186]”, which IC50 is on record?
Its IC50 is < 0.1 µM.

tested on: HT1080 cells (2-HG production); assay: Cellular assay, inhibition of 2-HG production in HT1080 cells; format: cell-based; settings: Homo sapiens, HT-1080, 48 h
Protocol: as §1

For `O=C(NC1CCCCC1)[C@@H](c1ccccc1Cl)N(C(=O)[C@@H]1CCC(=O)N1c1ncccn1)c1cccc(F)c1` [Compound 6], which IC50 is on record?
The IC50 was 0.1 to 0.5 µM.
